As a reminder, the IC50 is the point on the concentration scale where inhibition reaches its midpoint. In general, inhibition refers to the percentage by which the read-out fell short of the control.

SMILES strings stand for the structures.

For 24 compounds, IC50 and inhibition results are on record in ChEMBL document CHEMBL4373715, “Discovery and Biological Evaluations of Halogenated 2,4-Diphenyl Indeno[1,2-b]pyridinol Derivatives as Potent Topoisomerase IIα-Targeted Chemotherapeutic Agents for Breast Cancer” (J Med Chem, 2019).

Assay [1] has as its system HCT-15. The assay is described as follows: Antiproliferative activity against human HCT15 cells measured after 72 hrs by EZ-Cytox assay. Type of assay: functional, cell-based. Conditions: HCT-15, 72 h.
For assay [2], the system named is T47D. The assay is described as follows: Antiproliferative activity against human T47D cells measured after 72 hrs by EZ-Cytox assay. Type of assay: functional, cell-based.
Assay [3] has as its system HeLa. Briefly: Antiproliferative activity against human HeLa cells measured after 72 hrs by EZ-Cytox assay. Type of assay: functional, cell-based.
Assay [4] concerns the target DNA topoisomerase 2-alpha (Homo sapiens) (UniProt P11388). Briefly: Inhibition of recombinant human topoisomerase 2alpha-mediated relaxation of supercoiled pBR322 DNA at 100 uM measured after 30 mins by ethidium bromide staining based agarose gel electrophoresis relative to control.
The subject of assay [5] is DU-145. Briefly: Antiproliferative activity against human DU145 cells measured after 72 hrs by EZ-Cytox assay. Type of assay: functional, cell-based. Conditions: DU-145, 72 h.
The target in assay [6] is T1, DNA topoisomerase 1 (Homo sapiens) (UniProt P11387).
T1 sequence (whole entry): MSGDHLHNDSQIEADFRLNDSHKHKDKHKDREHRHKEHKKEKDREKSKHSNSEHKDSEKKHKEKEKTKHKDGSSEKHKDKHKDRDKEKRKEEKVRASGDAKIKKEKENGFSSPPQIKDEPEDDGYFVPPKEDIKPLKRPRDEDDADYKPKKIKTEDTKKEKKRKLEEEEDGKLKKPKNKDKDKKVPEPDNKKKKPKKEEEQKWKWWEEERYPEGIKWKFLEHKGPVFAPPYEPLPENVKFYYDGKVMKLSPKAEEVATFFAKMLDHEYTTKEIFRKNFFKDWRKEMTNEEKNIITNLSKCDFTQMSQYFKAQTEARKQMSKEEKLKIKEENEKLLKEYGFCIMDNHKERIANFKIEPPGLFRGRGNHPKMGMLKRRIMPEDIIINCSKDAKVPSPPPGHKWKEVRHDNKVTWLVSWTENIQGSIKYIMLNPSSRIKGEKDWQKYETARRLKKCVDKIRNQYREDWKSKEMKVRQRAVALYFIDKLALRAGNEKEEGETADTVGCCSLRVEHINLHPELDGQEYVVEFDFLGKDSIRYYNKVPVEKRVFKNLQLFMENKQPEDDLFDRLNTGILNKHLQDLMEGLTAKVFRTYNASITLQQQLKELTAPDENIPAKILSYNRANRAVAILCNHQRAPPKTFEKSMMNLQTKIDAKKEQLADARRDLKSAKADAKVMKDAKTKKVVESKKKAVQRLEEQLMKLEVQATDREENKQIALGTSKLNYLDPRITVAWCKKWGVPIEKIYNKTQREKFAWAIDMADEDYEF
Briefly: Inhibition of recombinant human topoisomerase 1-mediated relaxation of supercoiled pBR322 DNA at 20 uM measured after 30 mins by ethidium bromide staining based agarose gel electrophoresis relative to control.

Assay [7] concerns the target DNA topoisomerase 2-alpha (Homo sapiens) (UniProt P11388). Briefly: Inhibition of recombinant human topoisomerase 2alpha-mediated relaxation of supercoiled pBR322 DNA at 20 uM measured after 30 mins by ethidium bromide staining based agarose gel electrophoresis relative to control.
The target of assay [8] is T1, DNA topoisomerase 1 (Homo sapiens). The assay is described as follows: Inhibition of recombinant human topoisomerase 1-mediated relaxation of supercoiled pBR322 DNA at 100 uM measured after 30 mins by ethidium bromide staining based agarose gel electrophoresis relative to control.

DNA topoisomerase 2-alpha (Homo sapiens), sequence (P11388 whole entry): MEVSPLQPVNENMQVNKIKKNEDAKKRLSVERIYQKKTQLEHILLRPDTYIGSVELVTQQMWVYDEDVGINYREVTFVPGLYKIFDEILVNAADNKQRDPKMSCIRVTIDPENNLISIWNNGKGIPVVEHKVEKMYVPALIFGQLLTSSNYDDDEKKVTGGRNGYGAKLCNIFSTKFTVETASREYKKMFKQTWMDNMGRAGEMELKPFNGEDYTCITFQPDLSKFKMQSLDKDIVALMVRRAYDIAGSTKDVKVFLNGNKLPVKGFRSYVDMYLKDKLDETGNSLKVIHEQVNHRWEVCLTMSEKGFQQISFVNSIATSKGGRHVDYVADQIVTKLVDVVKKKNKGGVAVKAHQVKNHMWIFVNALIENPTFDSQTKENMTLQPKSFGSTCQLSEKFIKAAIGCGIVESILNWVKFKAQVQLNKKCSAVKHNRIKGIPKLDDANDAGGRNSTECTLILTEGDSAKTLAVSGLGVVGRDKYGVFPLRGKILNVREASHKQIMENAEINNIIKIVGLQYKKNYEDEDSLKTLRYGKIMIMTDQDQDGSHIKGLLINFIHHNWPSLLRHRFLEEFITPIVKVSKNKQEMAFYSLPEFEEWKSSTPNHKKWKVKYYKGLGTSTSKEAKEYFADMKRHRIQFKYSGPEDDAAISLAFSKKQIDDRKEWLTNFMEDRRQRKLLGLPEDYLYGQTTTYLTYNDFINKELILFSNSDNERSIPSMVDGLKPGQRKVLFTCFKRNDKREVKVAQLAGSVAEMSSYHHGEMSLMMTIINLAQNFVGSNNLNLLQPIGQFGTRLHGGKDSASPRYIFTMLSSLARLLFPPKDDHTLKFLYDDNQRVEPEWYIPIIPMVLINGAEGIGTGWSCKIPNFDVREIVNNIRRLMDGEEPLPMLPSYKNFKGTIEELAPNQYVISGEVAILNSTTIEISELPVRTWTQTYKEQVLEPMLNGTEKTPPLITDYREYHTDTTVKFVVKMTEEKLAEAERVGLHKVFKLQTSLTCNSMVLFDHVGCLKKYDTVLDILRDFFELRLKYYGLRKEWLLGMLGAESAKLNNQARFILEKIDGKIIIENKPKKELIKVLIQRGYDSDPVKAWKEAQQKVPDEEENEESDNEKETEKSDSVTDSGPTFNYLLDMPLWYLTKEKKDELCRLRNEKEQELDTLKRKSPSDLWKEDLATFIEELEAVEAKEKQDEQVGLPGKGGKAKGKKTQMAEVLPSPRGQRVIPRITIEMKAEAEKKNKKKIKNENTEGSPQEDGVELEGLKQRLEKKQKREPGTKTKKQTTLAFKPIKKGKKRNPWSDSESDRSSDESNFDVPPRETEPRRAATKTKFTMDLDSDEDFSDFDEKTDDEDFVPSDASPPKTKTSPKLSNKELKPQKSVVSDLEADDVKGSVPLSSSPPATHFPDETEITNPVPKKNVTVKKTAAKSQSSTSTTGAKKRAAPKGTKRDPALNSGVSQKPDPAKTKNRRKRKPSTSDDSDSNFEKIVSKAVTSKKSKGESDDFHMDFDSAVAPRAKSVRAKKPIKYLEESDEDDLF

Take `Oc1ccc2c(c1)Cc1c(-c3ccccc3Cl)cc(-c3ccccc3O)nc1-2`: the IC50 was found to be 3130 nM in assay [1], 3820 nM in assay [2], 17900 nM in assay [3] and 4430 nM in assay [5]. In addition, the inhibition in assay [4] amounted to 55.9%; in assay [6], 7.4%; in assay [7], 3.5%; in assay [8], 37%.

As for `Oc1cccc(-c2cc(-c3cccc(Cl)c3)nc3c2Cc2ccc(O)cc2-3)c1`, the IC50 came to 840 nM in assay [1], 1370 nM in assay [2], 5440 nM in assay [3] and 3280 nM in assay [5]. For the same compound, the inhibition was determined as 90.5% in assay [4], 14.3% in assay [7] and 1.5% in assay [8].

`Oc1ccccc1-c1cc(-c2cccc(Cl)c2)nc2c1Cc1cccc(O)c1-2`: the IC50 was determined as 1310 nM in assay [1], 960 nM in assay [2], 3620 nM in assay [3] and 220 nM in assay [5]. The inhibition amounted to 80% in assay [4], 3.2% in assay [7] and 13.1% in assay [8].

In the case of `Oc1ccc(-c2cc(-c3ccccc3F)nc3c2Cc2cccc(O)c2-3)cc1`, the half-maximal inhibitory concentration (IC50) was above 50000 nM in assay [1], 47200 nM in assay [2], above 50000 nM in assay [3] and 10300 nM in assay [5]. The inhibition in assay [4] stood at 47.1%; in assay [7], 1.4%; in assay [8], 11.7%.

For the compound `Oc1ccc2c(c1)Cc1c(-c3ccccc3O)cc(-c3ccccc3Cl)nc1-2`, the IC50 worked out at 2340 nM in assay [1], 2860 nM in assay [2], 840 nM in assay [3] and 1510 nM in assay [5]. In addition, the inhibition in assay [4] turned out to be 70.5%; in assay [7] it was 8.2%; in assay [8], 11.7%.

For the compound `Oc1ccc2c(c1)Cc1c(-c3ccccc3O)cc(-c3ccc(Cl)cc3)nc1-2`, the half-maximal inhibitory concentration (IC50) in assay [1] was determined as 3970 nM; in assay [2], 620 nM; in assay [3] it was 3840 nM; in assay [5], 650 nM. In addition, the results for the inhibition in assay [4], in assay [7] and in assay [8] were 97.5%, 4.4% and 26.8%, respectively.

Regarding `Oc1cccc(-c2cc(-c3cccc(F)c3)nc3c2Cc2cc(O)ccc2-3)c1`, the IC50 in assay [1] was 2710 nM; in assay [2], 790 nM; in assay [3], 3850 nM; in assay [5], 1410 nM. In addition, the inhibition in assay [4] was 66.2%; in assay [7] it was 0%; in assay [8], 17.5%.

On to `Oc1ccc(-c2cc(-c3cccc(Cl)c3)c3c(n2)-c2ccc(O)cc2C3)cc1`, for which the concentration for half-maximal inhibition (IC50) in assay [1] worked out at 5690 nM; in assay [2] it was 1860 nM; in assay [3] it was 5940 nM; in assay [5] it was 2250 nM. Moreover, the inhibition in assay [4] is 73.9%; in assay [7], 3.3%; in assay [8], 8.8%.

Turning to `Oc1ccc(-c2cc(-c3ccccc3C(F)(F)F)nc3c2Cc2c(O)cccc2-3)cc1`, the IC50 in assay [1] was 3820 nM; in assay [2], 2660 nM; in assay [3], above 50000 nM; in assay [5] it was 5340 nM. In addition, the inhibition in assay [4] amounted to 30.1%; in assay [7], 0.6%; in assay [8], 7.1%.

Regarding `Oc1cccc(-c2cc(-c3cccc(Cl)c3)nc3c2Cc2cccc(O)c2-3)c1`, the IC50 was 2490 nM in assay [1], 1630 nM in assay [2], 4590 nM in assay [3] and 3480 nM in assay [5]. In addition, the inhibition was determined as 88.6% in assay [4], 3.4% in assay [7] and 16.9% in assay [8].

Regarding `Oc1cccc(-c2cc(-c3ccccc3C(F)(F)F)nc3c2Cc2ccc(O)cc2-3)c1`, the half-inhibitory concentration (IC50) in assay [1] amounted to 1670 nM; in assay [2], 1220 nM; in assay [3], 3710 nM; in assay [5], 1830 nM. Further, the inhibition in assay [4] worked out at 79%; in assay [7], 3.1%; in assay [8], 1.8%.

Regarding `Oc1cccc(-c2cc(-c3cccc(Cl)c3)c3c(n2)-c2cccc(O)c2C3)c1`, the IC50 in assay [1] was 4790 nM; in assay [2], 33100 nM; in assay [3], 35500 nM; in assay [5] it was 21300 nM. For the same compound, the inhibition in assay [4] is 64.6%; in assay [7], 2.3%; in assay [8], 7.4%.

As to `Oc1ccc2c(c1)Cc1c(-c3ccccc3O)cc(-c3cccc(C(F)(F)F)c3)nc1-2`, the IC50 in assay [1] worked out at 3890 nM; in assay [2], 700 nM; in assay [3], 3100 nM; in assay [5], 1720 nM. The values for the inhibition in assay [4], in assay [7] and in assay [8] were 85.4%, 4.1% and 0%, respectively.

Regarding `Oc1cccc(-c2cc(-c3ccccc3)c3c(n2)-c2ccc(O)cc2C3)c1`, the half-maximal inhibitory concentration (IC50) came out at 1300 nM in assay [1], 4120 nM in assay [2], 5700 nM in assay [3] and 270 nM in assay [5]. Also, the results for the inhibition in assay [4], in assay [7] and in assay [8] were 36%, 3.3% and 10.2%, respectively.

For `Oc1ccc(-c2cc(-c3cccc(Cl)c3)nc3c2Cc2cc(O)ccc2-3)cc1`, the IC50 in assay [1] came out at 750 nM; in assay [2], 1200 nM; in assay [3], 1170 nM; in assay [5] it was 1200 nM. The inhibition in assay [4] was determined as 100%; in assay [7] it was 31.9%; in assay [8], 0%.

`Oc1cccc(-c2cc(-c3cccc(F)c3)nc3c2Cc2c(O)cccc2-3)c1`: the half-maximal inhibitory concentration (IC50) in assay [1] came to 4900 nM; in assay [2], 890 nM; in assay [3], 7040 nM; in assay [5] it was 2370 nM. Further, the inhibition in assay [4] was 43.2%; in assay [7], 5.6%; in assay [8] it was 9.8%.

Turning to `Oc1ccc2c(c1)Cc1c(-c3ccccc3)cc(-c3ccccc3)nc1-2`, the IC50 in assay [1] worked out at 3370 nM; in assay [2] it was 700 nM; in assay [3], 4940 nM; in assay [5] it was 3820 nM. The inhibition was 54.2% in assay [4], 2.1% in assay [7] and 2.1% in assay [8].

Take `Oc1ccc(-c2cc(-c3ccc(C(F)(F)F)cc3)nc3c2Cc2cccc(O)c2-3)cc1`: the concentration for half-maximal inhibition (IC50) in assay [1] was above 50000 nM; in assay [2] it was above 50000 nM; in assay [3], above 50000 nM; in assay [5], 13200 nM. The inhibition turned out to be 82.3% in assay [4], 0% in assay [7] and 18.5% in assay [8].

With `Oc1cccc(-c2cc(-c3ccccc3Cl)nc3c2Cc2cccc(O)c2-3)c1`, the IC50 in assay [1] turned out to be 3820 nM; in assay [2] it was 120 nM; in assay [3], 5250 nM; in assay [5], 240 nM. Moreover, the inhibition is 89.6% in assay [4], 10.9% in assay [7] and 6.3% in assay [8].

Take `Oc1cccc(-c2cc(-c3cccc(C(F)(F)F)c3)nc3c2Cc2cc(O)ccc2-3)c1`: the IC50 was found to be 2220 nM in assay [1], 1330 nM in assay [2], 2030 nM in assay [3] and 1420 nM in assay [5]. The inhibition was 85.2% in assay [4], 29% in assay [7] and 10.2% in assay [8].

`Oc1ccc2c(c1)-c1nc(-c3ccccc3C(F)(F)F)cc(-c3ccccc3O)c1C2`: the IC50 in assay [1] came out at 4040 nM; in assay [2] it was 1410 nM; in assay [3], 2960 nM; in assay [5] it was 2860 nM. In addition, the inhibition in assay [4] came out at 86.1%; in assay [7], 3.4%; in assay [8] it was 0.4%.

Take `Oc1ccccc1-c1cc(-c2ccc(F)cc2)nc2c1Cc1cccc(O)c1-2`: the IC50 in assay [1] was found to be 2070 nM; in assay [2], 740 nM; in assay [3], 3080 nM; in assay [5] it was 1400 nM. For the same compound, the results for the inhibition in assay [4], in assay [7] and in assay [8] were 34.4%, 0% and 0%, respectively.

Take `Oc1ccccc1-c1cc(-c2cccc(F)c2)nc2c1Cc1c(O)cccc1-2`: the IC50 in assay [1] was found to be 2350 nM; in assay [2] it was 1250 nM; in assay [3] it was 3920 nM; in assay [5], 3940 nM. The inhibition in assay [4] stood at 80.7%; in assay [7], 4.8%; in assay [8], 0%.

Consider `Oc1cccc(-c2cc(-c3ccc(Cl)cc3)nc3c2Cc2ccc(O)cc2-3)c1`, for which the concentration for half-maximal inhibition (IC50) came to 860 nM in assay [1], 3500 nM in assay [2], 1730 nM in assay [3] and 4430 nM in assay [5]. Moreover, the inhibition in assay [4] was found to be 87.8%; in assay [7], 51.9%; in assay [8], 16.7%.
